Key:
Type in all cases: in vivo
[1] = test system: Aedes aegypti strain MONHEIM; assay: Aedes aegypti test (AEDSAE surface treatment & contact assay); settings: 24 hours after contact, read-out: efficacy (mortality); for mortality at 4 mg/m2: surface concentration 4 mg/m^2, exposure 30 minutes; for mortality at 20 mg/m2: surface concentration 20 mg/m^2, exposure 30 minutes
Summary of the method: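 Compound in acetone (2 mg/ml) with 2000 ppm RME pipetted onto glazed tile and dried; adult Aedes aegypti MONHEIM exposed 30 min. Percent mortality scored 24 h after contact.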

[2] = test system: adult cat fleas (Ctenocephalides felis); assay: Ctenocephalides felis in-vitro contact test, adult cat flea; settings: application rate 5 μg/cm^2 (=500 g/ha), after 48 hours, read-out: activity (efficacy: fleas dead or moribund)
Summary of the method: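 Acetone solutions of compound coated onto inner walls of glass tubes (900 ppm giving […]); after drying, 5-10 adult Ctenocephalides felis added and held at room temperature. At 48 h, fleas placed on a 45-50° C heating plate; those unable to climb away scored dead or moribund, expressed as % efficacy.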

[3] = test system: fall armyworm larvae (Spodoptera frugiperda); assay: Spodoptera frugiperda spray test; settings: 168 h, read-out: activity (mortality)
Summary of the method: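 Compound in acetone/DMF, diluted in water with 1000 ppm alkylarylpolyglycol ether emulsifier, sprayed on maize leaf sections. Dried leaves infested with fall armyworm larvae; % mortality after 7 days (100% = all killed, 0% = none).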

[4] = test system: adult unfed cat fleas (Ctenocephalides felis); assay: Ctenocephalides felis oral test; settings: 48 h, read-out: activity (mortality)
Summary of the method: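 About 20 adult unfed fleas fed through parafilm on cattle blood containing compound (DMSO stock diluted in blood), blood held at 37 °C and fleas at room temperature. Mortality (%) scored after 2 days.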

[5] = test system: adult engorged female ticks (Rhipicephalus microplus); assay: Rhipicephalus (Boophilus) microplus injection test; settings: 168 h, egg deposition after 7 days, read-out: activity (efficacy: infertile eggs); for pest or weed control at 4 pg: application rate 4 pg/animal; for pest or weed control at 0.02 mg: application rate 20 μg/animal
Summary of the method: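 Five adult engorged female ticks injected into the abdomen with 1 μL compound solution in DMSO, then held in a climate chamber. Fertile egg deposition assessed after 7 days, unclear eggs kept until hatching (about 42 days); efficacy 100% = all eggs infertile, 0% = all fertile.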

[6] = test system: Rhipicephalus microplus larvae (strain Parkhurst, resistant against synthetic pyrethroids); assay: Rhipicephalus (Boophilus) microplus in-vitro contact test, larval cattle tick; settings: after 48 hours, read-out: activity (efficacy: larvae dead or moribund); for pest or weed control at 100 g/ha: application rate 1 pg/cm^2 (=100 g/ha); for pest or weed control at 500 g/ha: application rate 5 pg/cm^2 (=500 g/ha)
Summary of the method: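 Acetone solutions coated onto inner walls of glass tubes by rotation (900 ppm giving 5 μg/cm^2); after evaporation, 20-50 larvae added per tube and held at 27° C., 85% relative humidity. Efficacy read after 48 h from negative geotactic behaviour; 100% = all larvae dead or moribund.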

[7] = test system: larvae of the southern green stink bug (Nezara viridula); assay: Nezara viridula spray test; settings: 96 h, after 4 days; for mortality at 500 g/ha: application rate 500 g/ha; for mortality at 100 g/ha: application rate 100 g/ha
Summary of the method: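 Compound in acetone/dimethylformamide, diluted in water with 1000 ppm alkylarylpolyglycol ether emulsifier, sprayed onto barley plants carrying stink bug larvae. Mortality (%) scored after 4 days, 100% meaning all insects killed.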

[8] = test system: green peach aphid (Myzus persicae); assay: Myzus persicae spray test; settings: 120 h, after 5 days; for mortality at 100 g/ha: application rate 100 g/ha; for mortality at 500 g/ha: application rate 500 g/ha
Summary of the method: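 Chinese cabbage leaf disks carrying all instars of M. persicae sprayed with compound in acetone/DMF, diluted in water with 1000 ppm alkylarylpolyglycol ether emulsifier. Percent mortality scored after 5 days (100% = all aphids killed).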

Row | SMILES | mortality at 4 mg/m2 [1] [%] | mortality at 20 mg/m2 [1] [%] | pest or weed control at 5 µg/cm2 [2] [%] | mortality at 500 g/ha [3] [%] | mortality at 100 ppm [4] [%] | pest or weed control at 4 pg [5] [%] | pest or weed control at 0.02 mg [5] [%] | pest or weed control at 100 g/ha [6] [%] | pest or weed control at 500 g/ha [6] [%] | mortality at 100 g/ha [3] [%] | mortality at 500 g/ha [7] [%] | mortality at 100 g/ha [8] [%] | mortality at 500 g/ha [8] [%] | mortality at 100 g/ha [7] [%]
1 | Cc1nc([C@H](C)NC(=O)c2cc(Cl)nn2C)n(-c2ccc(C#N)cn2)n1 [II-11] | 80 to 100 | 80 to 100 | 100 | 100 | 100 | 100 | 100 | 100 | 100 |  |  |  |  | 
2 | Cc1nc([C@H](C)NC(=O)c2cc(C(F)(F)F)n(C)n2)n(-c2ccc(C#N)cn2)n1 [II-7] | 80 to 100 | 80 to 100 | 100 | 100 | 100 | 100 | 100 |  | 100 | 100 | 90 |  |  | 
3 | C[C@H](NC(=O)c1cc(C2CC2)cc(C(F)(F)F)c1)c1ncnn1-c1ccc(C#N)cn1 [II-26] | 80 to 100 | 80 to 100 | 90 | 100 |  | 100 | 100 | 100 | 100 | 100 | 100 | 90 | 100 | 100
4 | C[C@H](NC(=O)c1cc(C#N)cc([S+](C)[O-])c1)c1ncnn1-c1ccc(C#N)cn1 (stereo partly shown) [II-12] | 80 to 100 | 80 to 100 | 100 | 100 |  | 100 | 100 | 80 | 100 |  | 100 | 90 | 90 | 100
5 | C[C@H](NC(=O)c1cc(C(F)(F)F)cc(S(=O)(=O)C2CC2)c1)c1ncnn1-c1ccc(C#N)cn1 [II-32] | 80 to 100 | 80 to 100 |  | 100 | 100 | 100 | 100 | 100 | 100 | 100 | 100 |  | 90 | 100
6 | C[C@H](NC(=O)c1cc(Cl)cc([S+]([O-])C(F)F)c1)c1ncnn1-c1ccc(C#N)cn1 (stereo partly drawn) [II-18, 3-chloro-N-{(1S)-1-[1-(5-cyanopyridin-2-yl)-1H-1,2,4-triazol-5-yl]ethyl}-5-[(difluoro-methyl)sulfinyl]benzamide] | 80 to 100 | 80 to 100 | 100 | 100 | 100 | 100 | 100 | 100 | 100 | 100 | 100 |  |  | 100
7 | C[C@H](NC(=O)c1cc(OC(F)(F)F)cc(C2CC2)c1)c1ncnn1-c1ccc(Cl)cn1 [II-23] | 80 to 100 | 80 to 100 | 100 | 100 |  | 100 | 100 | 100 | 100 | 100 | 100 | 100 | 100 | 100
8 | Cc1nc([C@H](C)NC(=O)c2cc(C(F)(F)F)n(C)n2)n(-c2ncccn2)n1 [II-25] | 80 to 100 | 80 to 100 | 100 |  |  | 100 | 100 | 100 | 100 |  | 100 |  | 90 | 100

— patent publication US20260206761A1, “HETEROARYL-TRIAZOLE COMPOUNDS AS PESTICIDES” (Bayer Aktiengesellschaft, priority 2019, published 2026)
